Assay results taken from US20140322315A1, “CYSTEAMINE AND/OR CYSTAMINE FOR TREATING ISCHEMIC INJURY” (The Regents of the University of California, priority 2011, published 2014).

System: adiponectin
Test: Serum total and multimeric adiponectin in subjects with NAFLD treated 24 weeks with EC-cysteamine
Type: in vivo, human
Text: Eleven children ≧10 years, with biopsy-proven NAFLD and an alanine aminotransferase (ALT) level ≧60 IU/L, were enrolled. They were either newly diagnosed or had not received specific therapy for NAFLD such as vitamin E or insulin-sensitizing drugs for at least 3 months before entering the study. All had undertaken standard of care lifestyle changes involving diet and exercise for more than 3 months. The study's primary outcome measure was normalization (≦40 IU/L) or 50% reduction in baseline serum ALT at 24 weeks of EC-cysteamine therapy; these subjects were deemed responders.
Subjects were treated for 24 wks and remained monitored for 24 weeks following its discontinuation. The mean EC-cysteamine dose ingested was 654 mg twice daily or 15.2 mg/kg/day (median dose 900 mg) for 24 wks.
During the pilot study blood was collected at pre-defined intervals. Serum was stored at −80° C. until time of assay. Adequate serum volumes were available in 10 of the 11 subjects with NAFLD and only up to 16 weeks post-treatment.
Total and multimeric adiponectin levels were measured in serum taken from: (1) subject with NAFLD collected at 0 and 24 wks of cysteamine therapy and again 16 wks after stopping therapy (i.e., 40 weeks); (2) pretreated 0-week subjects with NAFLD and adults without NAFLD at room temperature and at 37° C. and also after incubation with cysteamine 90 μM for 1 hour at 37° C.; and (3) pretreated 0-week subjects with NAFLD before and after incubation with cysteamine at varying concentrations (15, 30, 45, 60, 90, 120 μM) for 1 hour at 37° C. to establish dose-response profile.
Sodium dodecyl sulfate polyacrylamide gel electrophoresis (SDS-PAGE) was performed according to standard Laemmli's method. Sample buffer for non-reducing, non-heat denaturing conditions contained 3% SDS; 50 mmol/1 Tris-HCL, pH 6.8 and 20% glycerol. Proteins were separated using 3-8% Tris-Acetate Gels (Invitrogen, Carlsbad Calif.) with Tris-Acetate running buffer per manufacturer instructions. For immunoblotting, proteins were transferred to nitrocellulose membranes. Membranes were washed with Tween (Tris-buffered Saline, 0.1% […]) and incubated with monoclonal antibody (1:500 BD Transduction Laboratories, San Diego, Calif.). After washing with Tris-buffered saline with 0.1% Tween (4×5 min) membranes were incubated with L-COR secondary antibodies (LI-COR Biotechnology, Lincoln Nebr.) at 1:20,000. Adiponectin multimers were detected and quantified using the LICOR imager and software analysis program. Relative distribution of adiponectin multimers was determined by dividing band density by total density (cellular adiponectin) or by total adiponectin as determined by ELISA (Millipore, Billerica, Mass.). The percentage of adionectin multimer was then multiplied by the total adiponectin level to calculate absolute oligomer value.

[1] = after discontinuing therapy at 24 weeks, P=0.01

NCCS.O=C(O)C(O)C(O)C(=O)O (stereo not shown) [cysteamine bitartrate, Cysteamine bitartrate]
mean percent change of HMW adiponectin from baseline (7 responders, 24 weeks): 87.7%
mean percent change of LMW adiponectin from baseline (7 responders, 24 weeks): 33.9%
mean percent change of MMW adiponectin from baseline (7 responders, 24 weeks): 13.7%
mean percent change of total adiponectin from baseline (7 responders, 24 weeks): 57.5%
all adiponectin multimer levels, difference from baseline (40-week timepoint (16 weeks off therapy)): ≤ 2%
LMW adiponectin change between 24-week and 40-week timepoints (after discontinuing therapy at 24 weeks, P=0.009): significant mean percent reduction
MMW adiponectin change between 24-week and 40-week timepoints [1]: significant mean percent reduction
total adiponectin change between 24-week and 40-week timepoints [1]: significant mean percent reduction
HMW adiponectin change between 24-week and 40-week timepoints (after discontinuing therapy at 24 weeks, P=0.02): significant mean percent reduction
mean percent increase of total adiponectin from baseline (all subjects, 0-24 weeks oral EC-cysteamine, P=0.05): 49.3%
mean percent increase of HMW adiponectin from baseline (all subjects, 24 weeks oral EC-cysteamine (15.2 mg/kg/day), P=0.02): 53%
mean percent increase of MMW adiponectin from baseline (all subjects, 24 weeks oral EC-cysteamine, P=0.02): 19%
mean percent increase of LMW adiponectin from baseline (all subjects, 24 weeks oral EC-cysteamine, P=0.03): 29.4%
